# Data: ChEMBL document CHEMBL3431459, “Roche carnitine palmitoyltransferase modulator screening data (supplementary data associated with the publication CHEMBL2216752)”
# Columns and labels:
# [1] = target: T1, Carnitine O-palmitoyltransferase 2, mitochondrial (Rattus norvegicus, UniProt P18886); experiment: (§1) SUPPLEMENTARY: Inhibition of Carnitine palmitoyltransferase 2
# T1 sequence (P18886 whole entry): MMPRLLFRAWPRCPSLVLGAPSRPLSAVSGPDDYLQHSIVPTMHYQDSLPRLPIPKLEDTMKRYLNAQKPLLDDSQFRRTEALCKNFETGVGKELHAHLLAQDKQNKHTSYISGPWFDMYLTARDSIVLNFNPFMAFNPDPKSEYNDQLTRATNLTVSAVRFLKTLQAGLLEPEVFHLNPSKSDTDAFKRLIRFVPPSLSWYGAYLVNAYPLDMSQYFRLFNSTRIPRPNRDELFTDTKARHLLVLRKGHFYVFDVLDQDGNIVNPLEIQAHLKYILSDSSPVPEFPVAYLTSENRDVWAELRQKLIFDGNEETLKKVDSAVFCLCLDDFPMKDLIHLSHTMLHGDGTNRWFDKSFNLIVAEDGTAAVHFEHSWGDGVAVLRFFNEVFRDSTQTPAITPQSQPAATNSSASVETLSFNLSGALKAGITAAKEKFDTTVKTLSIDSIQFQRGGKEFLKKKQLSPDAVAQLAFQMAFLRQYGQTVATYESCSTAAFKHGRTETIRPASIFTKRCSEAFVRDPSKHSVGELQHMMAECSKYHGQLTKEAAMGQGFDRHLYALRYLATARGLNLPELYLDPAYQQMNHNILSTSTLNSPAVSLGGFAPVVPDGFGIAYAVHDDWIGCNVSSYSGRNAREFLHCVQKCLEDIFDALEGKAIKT
# [2] = target: T2, Carnitine O-palmitoyltransferase 2, mitochondrial (Homo sapiens, UniProt P23786); experiment: as §1
# T2 sequence (P23786 whole entry): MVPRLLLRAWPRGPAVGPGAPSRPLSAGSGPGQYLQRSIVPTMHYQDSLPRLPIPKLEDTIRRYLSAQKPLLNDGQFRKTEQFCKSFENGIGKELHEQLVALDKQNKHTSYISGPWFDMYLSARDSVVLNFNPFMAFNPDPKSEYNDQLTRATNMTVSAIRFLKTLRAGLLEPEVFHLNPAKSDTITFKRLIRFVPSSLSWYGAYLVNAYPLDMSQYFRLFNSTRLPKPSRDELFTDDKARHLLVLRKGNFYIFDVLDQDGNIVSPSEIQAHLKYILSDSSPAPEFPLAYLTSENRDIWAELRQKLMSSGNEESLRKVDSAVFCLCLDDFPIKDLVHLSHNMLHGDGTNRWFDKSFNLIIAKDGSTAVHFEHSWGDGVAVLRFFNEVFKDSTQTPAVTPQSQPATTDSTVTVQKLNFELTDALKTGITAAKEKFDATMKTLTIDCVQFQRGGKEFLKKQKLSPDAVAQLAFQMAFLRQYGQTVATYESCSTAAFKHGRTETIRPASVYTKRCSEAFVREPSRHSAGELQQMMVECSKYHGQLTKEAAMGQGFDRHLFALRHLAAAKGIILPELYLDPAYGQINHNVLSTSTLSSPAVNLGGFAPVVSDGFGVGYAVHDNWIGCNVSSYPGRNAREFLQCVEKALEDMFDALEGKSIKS
# [3] = target: T3, Carnitine O-palmitoyltransferase 1, muscle isoform (Homo sapiens, UniProt Q92523); experiment: SUPPLEMENTARY: Inhibition of Carnitine palmitoyltransferase 1, muscle isoform; set-up: species or system Muscle tissue
# T3 sequence (Q92523 whole entry): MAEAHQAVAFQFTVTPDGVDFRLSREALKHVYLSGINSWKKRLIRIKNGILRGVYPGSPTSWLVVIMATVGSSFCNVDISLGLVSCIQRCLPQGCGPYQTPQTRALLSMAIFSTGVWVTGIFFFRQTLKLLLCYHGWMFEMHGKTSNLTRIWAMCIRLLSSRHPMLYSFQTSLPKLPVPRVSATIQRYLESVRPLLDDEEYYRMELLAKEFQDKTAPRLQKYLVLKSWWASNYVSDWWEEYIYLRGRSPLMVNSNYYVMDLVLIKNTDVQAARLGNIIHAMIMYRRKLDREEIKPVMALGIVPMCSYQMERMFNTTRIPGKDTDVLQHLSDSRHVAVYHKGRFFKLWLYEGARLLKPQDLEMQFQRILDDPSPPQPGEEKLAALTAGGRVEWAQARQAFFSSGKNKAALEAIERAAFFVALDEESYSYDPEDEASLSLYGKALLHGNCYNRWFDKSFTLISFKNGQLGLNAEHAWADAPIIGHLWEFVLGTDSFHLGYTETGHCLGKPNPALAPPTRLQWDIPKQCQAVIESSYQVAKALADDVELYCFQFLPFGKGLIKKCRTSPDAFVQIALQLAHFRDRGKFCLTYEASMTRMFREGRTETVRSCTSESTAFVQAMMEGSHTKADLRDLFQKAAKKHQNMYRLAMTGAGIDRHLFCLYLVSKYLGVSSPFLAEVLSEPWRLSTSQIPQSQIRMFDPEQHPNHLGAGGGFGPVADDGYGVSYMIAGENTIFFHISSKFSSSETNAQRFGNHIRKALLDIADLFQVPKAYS
# [4] = target: T4, Carnitine O-palmitoyltransferase 1, liver isoform (Homo sapiens, UniProt P50416); experiment: (§2) SUPPLEMENTARY: Inhibition of Carnitine palmitoyltransferase 1, liver isoform
# T4 sequence (P50416 whole entry): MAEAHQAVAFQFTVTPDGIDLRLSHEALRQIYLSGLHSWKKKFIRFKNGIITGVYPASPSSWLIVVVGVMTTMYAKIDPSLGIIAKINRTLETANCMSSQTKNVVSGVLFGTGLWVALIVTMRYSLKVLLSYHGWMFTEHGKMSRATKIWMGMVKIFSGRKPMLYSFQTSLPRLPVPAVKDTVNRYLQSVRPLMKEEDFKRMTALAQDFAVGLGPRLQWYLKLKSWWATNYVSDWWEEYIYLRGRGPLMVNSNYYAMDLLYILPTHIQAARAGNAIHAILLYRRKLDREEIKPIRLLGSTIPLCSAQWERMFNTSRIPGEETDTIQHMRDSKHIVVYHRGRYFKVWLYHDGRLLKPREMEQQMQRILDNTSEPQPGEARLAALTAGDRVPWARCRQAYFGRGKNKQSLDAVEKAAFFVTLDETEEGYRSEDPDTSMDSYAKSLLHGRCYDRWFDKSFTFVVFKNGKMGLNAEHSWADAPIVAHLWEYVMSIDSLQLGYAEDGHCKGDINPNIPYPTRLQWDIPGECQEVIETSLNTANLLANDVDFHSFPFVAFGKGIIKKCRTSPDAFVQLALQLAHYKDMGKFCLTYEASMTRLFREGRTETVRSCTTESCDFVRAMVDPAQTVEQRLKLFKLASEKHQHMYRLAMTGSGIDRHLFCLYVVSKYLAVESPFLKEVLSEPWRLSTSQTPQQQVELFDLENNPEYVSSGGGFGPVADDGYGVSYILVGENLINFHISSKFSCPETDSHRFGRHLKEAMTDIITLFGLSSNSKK
# [5] = target: T5, Carnitine O-palmitoyltransferase 1, liver isoform (Rattus norvegicus, UniProt P32198); experiment: as §2
# T5 sequence (P32198 whole entry): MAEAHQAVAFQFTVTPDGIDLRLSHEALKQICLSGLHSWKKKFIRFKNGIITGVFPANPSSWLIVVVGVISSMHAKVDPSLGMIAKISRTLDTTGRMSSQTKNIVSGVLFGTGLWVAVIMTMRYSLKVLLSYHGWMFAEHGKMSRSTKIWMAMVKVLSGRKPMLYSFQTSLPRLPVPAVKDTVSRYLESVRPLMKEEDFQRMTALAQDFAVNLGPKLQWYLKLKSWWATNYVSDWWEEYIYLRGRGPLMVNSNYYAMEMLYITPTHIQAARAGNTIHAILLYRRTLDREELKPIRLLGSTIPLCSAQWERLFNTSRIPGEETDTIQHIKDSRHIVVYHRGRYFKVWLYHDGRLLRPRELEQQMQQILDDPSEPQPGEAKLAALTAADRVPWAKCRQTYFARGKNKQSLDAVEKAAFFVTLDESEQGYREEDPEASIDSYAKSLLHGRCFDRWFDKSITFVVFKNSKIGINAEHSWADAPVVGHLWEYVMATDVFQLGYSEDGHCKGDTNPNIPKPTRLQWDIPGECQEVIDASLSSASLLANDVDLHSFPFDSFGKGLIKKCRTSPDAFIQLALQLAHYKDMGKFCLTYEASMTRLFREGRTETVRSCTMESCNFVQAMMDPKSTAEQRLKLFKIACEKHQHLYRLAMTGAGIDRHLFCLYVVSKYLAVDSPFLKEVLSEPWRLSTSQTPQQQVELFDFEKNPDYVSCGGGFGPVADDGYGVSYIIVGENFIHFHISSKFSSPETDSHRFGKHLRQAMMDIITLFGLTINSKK
# [6] = SUPPLEMENTARY: Lipophilicity (log D) Determination by high-throughput shake-flask; type: physicochemical; conditions: octanol/water
# [7] = SUPPLEMENTARY: Lyophilisation Solubility Assay (LYSA); type: physicochemical; conditions: read-out: Kinetic_solubility
# [8] = SUPPLEMENTARY: PAMPA permeability assay; type: physicochemical; conditions: read-out: Permeability
IC50 [1] [nM],IC50 [2] [nM],IC50 [3] [nM],IC50 [4] [nM],IC50 [5] [nM],logD [6],solubility kinetic [7] [µg/mL],Papp [8] [×10⁻⁶ cm/s],Structure (SMILES)
33600,24300,35500,90.2,238,2.36,109,3.53,O=C(COc1ccccc1)N1CCCC[C@@H]1c1noc(-c2cnc3[nH]cnc3c2)n1
> 100000,> 100000,99900,80.9,131,-0.22,347,0.06,COc1ccc(Cl)cc1S(=O)(=O)N1CC(C(=O)O)Oc2ccc(C(=O)Nc3ccc(F)cc3)cc21 (stereo unspecified)
4340,1360,1250,51.2,26.4,1.89,40,0.03,Cc1cc(C)cc(S(=O)(=O)c2n[nH]c3ccc(C(=O)Nc4ccc(C(=O)O)cc4)cc23)c1
> 100000,> 100000,1380,54,82.9,-0.47,7,1.31,COc1ccc(Cl)cc1S(=O)(=O)N1COCc2ccc(C(=O)Nc3nc(CC(=O)O)cs3)cc21
> 100000,> 100000,1310,22.3,15.2,0.17,48,3.25,COc1ccc(Cl)cc1S(=O)(=O)N1CCc2ccc(C(=O)Nc3nc(CC(=O)O)cs3)cc21
> 100000,38600,12000,15.1,10.1,0.98,133,0.27,COc1ccc(Cl)cc1S(=O)(=O)c1cn(CCCC(=O)O)c2ccc(C(=O)Nc3ccccc3)cc12
> 100000,> 100000,> 100000,119,507,3.15,30,4.34,Cc1cc(-c2noc([C@H]3CCCCN3C(=O)COc3ccccc3)n2)n(C)n1
